Data on one compound can be found in patent US11840527B2, “Non-fused thiophene derivatives and their uses” (ENYO PHARMA, priority 2018, dated 2023).

In the test the test system is LXFL 1121. The experiment in a line: Cytotoxicity, propidium iodide-based monolayer assay. The settings on record: 96 h; LXFL 1121, lung large cell carcinoma; four days of treatment; T/C=50%; read-out: Absolute IC50. The protocol: The cytotoxicity was tested for compounds of the invention on five different cell-lines, namely LXFL 1121, MAXF 401, MMXF L-636, PRXF PC-3M and UXF 1138 which are respectively lung large cell carcinoma, breast adeno carcinoma, multiple myeloma, prostate adeno carcinoma and uterine sarcoma.
Therefore, the compounds have a cytotoxicity against tumor cells and can be used for treating cancer. Materials and Methods Compound Handling A working stock solution of the test compounds was prepared in DMSO at a concentration of 33 mM or 8.25 mM, and small aliquots were stored at −20° C. On each day of an experiment, a frozen aliquot of the working stock solution was thawed and stored at room temperature prior to and during treatment. All liquid handling steps were performed using the Tecan Freedom EVO 200 platform. First, serial 2-fold dilutions of the 33 mM DMSO working stock solution were done in DMSO. […] Briefly, cells were harvested from exponential phase cultures, counted and plated in 96 well flat-bottom microtiter plates at a cell density of 4,000 to 40,000 cells/well dependent on the cell line's growth rate. […] After an incubation period of 1-2 hours at room temperature, fluorescence (FU) was measured using the Enspire Multimode Plate Reader (excitation λ=530 nm, emission λ=620 nm) to quantify the amount of attached viable cells. […]

pIC50: −log10 of the molar value.

`O=C(Nc1scc(-c2ccc(Cl)c(F)c2)c1C(=O)O)c1ccccc1` [Compound #2, 2-Benzamido-4-(4-chloro-3-fluoro-phenyl)thiophene-3-carboxylic acid]: the pIC50 is 4.97.

The pIC50 is the negative decadic logarithm of the IC50, by convention in mol/L.
